From patent US20230257396A1, “MACROCYCLES AND THEIR USE” (BLOSSOMHILL THERAPEUTICS, INC., priority 2020, published 2023)

Key:
Test in all cases: KINOMEscan kinase binding assay (Eurofins/DiscoveRx), % Ctrl
kinases [1] = molecular target: T1, kinases (Homo sapiens, UniProt P00519, M351T); conditions: 1 μM; ABL1(M351T)-phosphorylated
T1 construct: purchased Eurofins/DiscoveRx; host or cells: E. coli BL21-derived host (T7 phage display) for most kinases; HEK-293 for the rest
Summary of the method: (§1)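 Competition binding, 1 h RT: phage-tagged or HEK-293-expressed DNA-tagged kinase + immobilized ligand + compound. Eluate kinase by qPCR. % Ctrl = (test − positive ctrl)/(negative ctrl − positive ctrl) × 100; lower means stronger binding.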

kinases [2] = molecular target: T2, kinases (Homo sapiens, UniProt P00533); conditions: 1 μM; EGFR
T2 construct: purchased Eurofins/DiscoveRx; host or cells: E. coli BL21-derived host (T7 phage display) for most kinases; HEK-293 for the rest
T2 sequence (P00533 25-1210): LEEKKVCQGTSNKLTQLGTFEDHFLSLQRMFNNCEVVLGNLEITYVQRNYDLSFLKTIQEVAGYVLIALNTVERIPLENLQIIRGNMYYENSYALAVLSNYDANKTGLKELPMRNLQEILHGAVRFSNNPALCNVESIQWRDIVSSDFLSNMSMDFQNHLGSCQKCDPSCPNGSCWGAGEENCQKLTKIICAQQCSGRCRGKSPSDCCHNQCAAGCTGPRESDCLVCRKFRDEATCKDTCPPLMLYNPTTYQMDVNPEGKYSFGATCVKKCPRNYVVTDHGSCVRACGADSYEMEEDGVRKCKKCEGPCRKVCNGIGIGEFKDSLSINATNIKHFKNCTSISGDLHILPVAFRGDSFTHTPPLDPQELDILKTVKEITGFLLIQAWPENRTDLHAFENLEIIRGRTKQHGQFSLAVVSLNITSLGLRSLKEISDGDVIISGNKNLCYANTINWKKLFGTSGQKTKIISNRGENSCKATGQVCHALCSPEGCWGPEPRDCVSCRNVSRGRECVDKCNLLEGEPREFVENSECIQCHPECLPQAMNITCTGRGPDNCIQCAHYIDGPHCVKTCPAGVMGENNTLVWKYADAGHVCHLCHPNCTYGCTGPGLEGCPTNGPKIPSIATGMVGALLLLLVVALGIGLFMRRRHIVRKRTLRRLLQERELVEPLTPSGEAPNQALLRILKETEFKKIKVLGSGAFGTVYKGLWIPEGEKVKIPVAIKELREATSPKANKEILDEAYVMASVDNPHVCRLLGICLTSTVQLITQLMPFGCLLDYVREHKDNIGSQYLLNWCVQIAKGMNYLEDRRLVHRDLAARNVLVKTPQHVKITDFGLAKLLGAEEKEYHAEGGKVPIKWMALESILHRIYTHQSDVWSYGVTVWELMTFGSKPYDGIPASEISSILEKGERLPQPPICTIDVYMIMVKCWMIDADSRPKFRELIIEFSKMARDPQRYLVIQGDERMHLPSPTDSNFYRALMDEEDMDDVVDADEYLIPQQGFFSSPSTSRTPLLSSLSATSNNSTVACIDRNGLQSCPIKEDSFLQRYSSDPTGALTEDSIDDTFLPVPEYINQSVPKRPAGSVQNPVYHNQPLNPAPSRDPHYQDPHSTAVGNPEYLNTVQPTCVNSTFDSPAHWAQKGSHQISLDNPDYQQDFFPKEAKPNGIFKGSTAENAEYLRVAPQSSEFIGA
Summary of the method: as §1

kinases [3] = molecular target: T3, kinases (Homo sapiens, UniProt P07949); conditions: 1 μM; RET
T3 construct: purchased Eurofins/DiscoveRx; host or cells: E. coli BL21-derived host (T7 phage display) for most kinases; HEK-293 for the rest
T3 sequence (P07949 29-1114): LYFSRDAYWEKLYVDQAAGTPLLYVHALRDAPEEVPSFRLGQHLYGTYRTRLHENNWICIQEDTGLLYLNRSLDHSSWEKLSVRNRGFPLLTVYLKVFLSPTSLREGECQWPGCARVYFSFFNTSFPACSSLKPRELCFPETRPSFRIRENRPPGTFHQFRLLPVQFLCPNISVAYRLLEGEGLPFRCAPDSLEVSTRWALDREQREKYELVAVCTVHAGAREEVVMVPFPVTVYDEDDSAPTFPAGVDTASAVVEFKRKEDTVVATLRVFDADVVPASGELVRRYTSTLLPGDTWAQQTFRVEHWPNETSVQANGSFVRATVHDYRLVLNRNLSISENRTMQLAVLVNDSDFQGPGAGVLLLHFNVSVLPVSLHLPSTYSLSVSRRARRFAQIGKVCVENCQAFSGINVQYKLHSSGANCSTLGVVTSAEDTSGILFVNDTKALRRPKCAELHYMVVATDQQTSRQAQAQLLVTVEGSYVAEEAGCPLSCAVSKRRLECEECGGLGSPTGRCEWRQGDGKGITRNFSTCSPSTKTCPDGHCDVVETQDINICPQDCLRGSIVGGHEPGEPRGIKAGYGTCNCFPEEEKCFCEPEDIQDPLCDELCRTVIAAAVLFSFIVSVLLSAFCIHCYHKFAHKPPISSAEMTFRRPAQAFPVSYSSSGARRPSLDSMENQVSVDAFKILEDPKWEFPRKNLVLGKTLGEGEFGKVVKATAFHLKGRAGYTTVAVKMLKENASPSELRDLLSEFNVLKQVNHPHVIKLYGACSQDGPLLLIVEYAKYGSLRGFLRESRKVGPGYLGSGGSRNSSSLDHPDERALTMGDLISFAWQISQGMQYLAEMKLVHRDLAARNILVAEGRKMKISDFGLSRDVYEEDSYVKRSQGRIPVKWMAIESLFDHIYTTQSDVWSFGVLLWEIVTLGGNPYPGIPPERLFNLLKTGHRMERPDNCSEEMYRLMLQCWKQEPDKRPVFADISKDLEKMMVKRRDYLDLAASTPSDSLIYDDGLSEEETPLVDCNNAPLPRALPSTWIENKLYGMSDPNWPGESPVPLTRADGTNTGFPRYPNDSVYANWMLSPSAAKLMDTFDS
Summary of the method: as §1

kinases [4] = molecular target: T4, kinases (Homo sapiens, UniProt P07949, M918T); conditions: 1 μM; RET(M918T)
T4 construct: purchased Eurofins/DiscoveRx; host or cells: E. coli BL21-derived host (T7 phage display) for most kinases; HEK-293 for the rest
T4 sequence (P07949 29-1114 M918T): as the sequence (P07949 29-1114) above, with M890T counted along it
Summary of the method: as §1

kinases [5] = molecular target: T5, kinases (Homo sapiens, UniProt P10721, A829P); conditions: 1 μM; KIT(A829P)
T5 construct: purchased Eurofins/DiscoveRx; host or cells: E. coli BL21-derived host (T7 phage display) for most kinases; HEK-293 for the rest
T5 sequence (P10721 26-976 A829P): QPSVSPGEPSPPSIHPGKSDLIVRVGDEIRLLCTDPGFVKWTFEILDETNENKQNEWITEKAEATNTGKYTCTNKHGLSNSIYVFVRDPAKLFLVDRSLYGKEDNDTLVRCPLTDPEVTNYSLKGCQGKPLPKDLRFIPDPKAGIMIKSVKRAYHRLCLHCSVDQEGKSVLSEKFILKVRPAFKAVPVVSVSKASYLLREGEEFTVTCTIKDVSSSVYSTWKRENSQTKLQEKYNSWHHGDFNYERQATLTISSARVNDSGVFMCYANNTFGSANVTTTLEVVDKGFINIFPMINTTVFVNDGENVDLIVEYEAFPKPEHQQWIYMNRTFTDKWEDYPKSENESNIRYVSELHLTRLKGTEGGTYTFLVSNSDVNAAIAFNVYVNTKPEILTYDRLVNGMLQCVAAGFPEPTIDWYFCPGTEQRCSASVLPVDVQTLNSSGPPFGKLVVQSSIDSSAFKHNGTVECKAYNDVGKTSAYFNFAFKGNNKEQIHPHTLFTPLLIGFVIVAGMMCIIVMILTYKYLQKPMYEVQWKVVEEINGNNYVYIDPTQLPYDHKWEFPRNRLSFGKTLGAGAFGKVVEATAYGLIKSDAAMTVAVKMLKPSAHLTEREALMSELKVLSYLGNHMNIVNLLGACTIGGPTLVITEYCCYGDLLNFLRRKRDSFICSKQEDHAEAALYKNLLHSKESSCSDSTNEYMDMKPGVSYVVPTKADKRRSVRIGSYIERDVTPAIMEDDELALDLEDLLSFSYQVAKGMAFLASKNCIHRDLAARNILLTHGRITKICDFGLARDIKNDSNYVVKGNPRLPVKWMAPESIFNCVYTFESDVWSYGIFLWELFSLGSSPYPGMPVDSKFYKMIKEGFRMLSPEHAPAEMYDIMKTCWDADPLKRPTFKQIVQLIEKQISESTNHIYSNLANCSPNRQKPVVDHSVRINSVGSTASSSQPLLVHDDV
Summary of the method: as §1

kinases [6] = molecular target: T6, kinases (Homo sapiens, UniProt P10721, L576P); conditions: 1 μM; KIT(L576P)
T6 construct: purchased Eurofins/DiscoveRx; host or cells: E. coli BL21-derived host (T7 phage display) for most kinases; HEK-293 for the rest
T6 sequence (P10721 26-976 L576P): as the sequence (P10721 26-976 A829P) above, with L551P, P804A counted along it
Summary of the method: as §1

kinases [7] = molecular target: T7, kinases (Homo sapiens, UniProt P10721, V559D); conditions: 1 μM; KIT(V559D)
T7 construct: purchased Eurofins/DiscoveRx; host or cells: E. coli BL21-derived host (T7 phage display) for most kinases; HEK-293 for the rest
T7 sequence (P10721 26-976 V559D): as the sequence (P10721 26-976 A829P) above, with V534D, P804A counted along it
Summary of the method: as §1

kinases [8] = molecular target: T8, kinases (Homo sapiens, UniProt P36888, D835H); conditions: 1 μM; FLT3(D835H)
T8 construct: purchased Eurofins/DiscoveRx; host or cells: E. coli BL21-derived host (T7 phage display) for most kinases; HEK-293 for the rest
T8 sequence (P36888 27-993 D835H): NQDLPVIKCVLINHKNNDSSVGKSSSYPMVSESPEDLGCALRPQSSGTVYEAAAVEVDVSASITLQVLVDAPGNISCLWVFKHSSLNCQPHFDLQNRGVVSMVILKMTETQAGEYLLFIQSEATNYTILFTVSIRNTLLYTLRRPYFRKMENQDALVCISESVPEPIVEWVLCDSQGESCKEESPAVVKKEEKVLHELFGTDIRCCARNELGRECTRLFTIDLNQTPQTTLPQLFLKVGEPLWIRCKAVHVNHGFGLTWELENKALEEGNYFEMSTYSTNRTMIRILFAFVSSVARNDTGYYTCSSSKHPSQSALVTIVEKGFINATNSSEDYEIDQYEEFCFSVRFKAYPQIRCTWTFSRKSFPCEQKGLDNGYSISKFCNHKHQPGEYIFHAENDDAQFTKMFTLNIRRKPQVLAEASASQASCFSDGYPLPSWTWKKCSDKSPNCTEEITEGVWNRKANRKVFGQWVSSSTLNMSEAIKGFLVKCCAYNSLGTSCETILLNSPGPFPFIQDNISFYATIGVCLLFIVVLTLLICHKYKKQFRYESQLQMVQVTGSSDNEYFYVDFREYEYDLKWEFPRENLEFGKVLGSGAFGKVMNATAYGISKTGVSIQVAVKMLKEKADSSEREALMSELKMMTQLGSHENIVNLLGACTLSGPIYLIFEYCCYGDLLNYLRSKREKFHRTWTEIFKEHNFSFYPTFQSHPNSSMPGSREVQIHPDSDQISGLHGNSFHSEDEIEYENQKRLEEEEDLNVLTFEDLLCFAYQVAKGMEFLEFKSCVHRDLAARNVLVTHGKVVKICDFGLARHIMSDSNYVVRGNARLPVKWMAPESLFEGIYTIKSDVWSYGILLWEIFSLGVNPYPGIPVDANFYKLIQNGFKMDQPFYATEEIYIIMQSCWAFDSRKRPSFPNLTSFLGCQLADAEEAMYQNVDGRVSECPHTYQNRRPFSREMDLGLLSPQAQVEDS
Summary of the method: as §1

kinases [9] = molecular target: T9, kinases (Homo sapiens, UniProt P42684); conditions: 1 μM; ABL2
T9 construct: purchased Eurofins/DiscoveRx; host or cells: E. coli BL21-derived host (T7 phage display) for most kinases; HEK-293 for the rest
T9 sequence (P42684 whole entry): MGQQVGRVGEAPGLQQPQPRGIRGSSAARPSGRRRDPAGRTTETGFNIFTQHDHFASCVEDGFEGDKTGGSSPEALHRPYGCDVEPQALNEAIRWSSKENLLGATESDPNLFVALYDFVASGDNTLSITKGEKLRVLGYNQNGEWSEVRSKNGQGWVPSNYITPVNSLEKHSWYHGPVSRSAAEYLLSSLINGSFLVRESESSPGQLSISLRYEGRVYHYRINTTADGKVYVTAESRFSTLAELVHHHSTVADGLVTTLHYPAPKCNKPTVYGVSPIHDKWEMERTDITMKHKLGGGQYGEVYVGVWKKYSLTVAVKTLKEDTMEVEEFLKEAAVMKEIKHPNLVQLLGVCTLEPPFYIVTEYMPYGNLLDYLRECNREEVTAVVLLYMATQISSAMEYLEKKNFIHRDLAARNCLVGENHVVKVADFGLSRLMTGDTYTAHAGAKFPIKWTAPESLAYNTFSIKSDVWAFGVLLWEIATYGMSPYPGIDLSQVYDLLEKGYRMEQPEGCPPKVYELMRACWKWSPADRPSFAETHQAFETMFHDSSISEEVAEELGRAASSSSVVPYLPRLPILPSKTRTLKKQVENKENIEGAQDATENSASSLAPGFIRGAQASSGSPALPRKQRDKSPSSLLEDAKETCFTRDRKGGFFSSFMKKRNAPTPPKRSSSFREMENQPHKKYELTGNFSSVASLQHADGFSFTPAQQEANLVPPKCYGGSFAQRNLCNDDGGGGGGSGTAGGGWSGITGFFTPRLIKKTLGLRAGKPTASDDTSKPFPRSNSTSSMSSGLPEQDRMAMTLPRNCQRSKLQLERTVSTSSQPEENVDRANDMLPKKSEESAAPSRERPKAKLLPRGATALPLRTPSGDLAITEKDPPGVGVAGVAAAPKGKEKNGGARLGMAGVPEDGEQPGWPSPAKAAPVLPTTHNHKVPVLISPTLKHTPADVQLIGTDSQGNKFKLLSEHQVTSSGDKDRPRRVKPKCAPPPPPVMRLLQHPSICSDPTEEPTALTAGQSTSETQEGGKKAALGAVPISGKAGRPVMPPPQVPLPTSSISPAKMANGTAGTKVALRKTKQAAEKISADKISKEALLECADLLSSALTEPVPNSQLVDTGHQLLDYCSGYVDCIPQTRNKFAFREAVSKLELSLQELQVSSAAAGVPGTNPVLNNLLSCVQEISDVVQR
Summary of the method: as §1

kinases [10] = conditions: 1 μM
Summary of the method: as §1

SMILES	% Ctrl, ABL1(M351T)-phosphorylated (kinases [1])	% Ctrl, EGFR (kinases [2])	% Ctrl, RET (kinases [3])	% Ctrl, RET(M918T) (kinases [4])	% Ctrl, KIT(A829P) (kinases [5])	% Ctrl, KIT(L576P) (kinases [6])	% Ctrl, KIT(V559D) (kinases [7])	% Ctrl, FLT3(D835H) (kinases [8])	% Ctrl, ABL2 (kinases [9])	% Ctrl, EGFR(L747-E749del, A750P) (kinases [10])	% Ctrl, EGFR(L747-S752del, P753S) (kinases [10])	% Ctrl, EGFR(L747-T751del, Sins) (kinases [10])	% Ctrl, FLT3(ITD) (kinases [10])	% Ctrl, FLT3(ITD, D835V) (kinases [10])	% Ctrl, FLT3(ITD, F691L) (kinases [10])
Cc1cc2c([nH]1)/C=C1\C(=O)Nc3ccc(nc31)-c1ccccc1OCCCNC2=O [Ex.22, [3a(4)Z]-6-methyl-9,10,11,12-tetrahydro-1,18-(ethanediylidene)dipyrrolo[3,2-g:3′,4′-j][1,5,12]benzoxadiazacyclopentadecine-3,8(2H,5H)-dione]	100 % Ctrl	64 % Ctrl	81 % Ctrl	92 % Ctrl	100 % Ctrl	84 % Ctrl	96 % Ctrl	89 % Ctrl	95 % Ctrl	73 % Ctrl	95 % Ctrl	81 % Ctrl	100 % Ctrl	71 % Ctrl	100 % Ctrl
Cc1cc2c([nH]1)/C=C1\C(=O)Nc3ccc(cc31)-c1ccnn1CCOCCNC2=O [Ex.39, [19a(20)Z]-2-methyl-6,7,9,10-tetrahydro-1H-15,17-(ethanediylidene)pyrazolo[1,5-d]dipyrrolo[3,4-h:2′,3′-k][1,4,14]oxadiazacyclohexadecine-4,19(5H,18H)-dione]	58 % Ctrl	77 % Ctrl	85 % Ctrl	97 % Ctrl	99 % Ctrl	100 % Ctrl	99 % Ctrl	85 % Ctrl	89 % Ctrl	68 % Ctrl	66 % Ctrl	60 % Ctrl	89 % Ctrl	17 % Ctrl	27 % Ctrl
Cc1cc2c([nH]1)/C=C1\C(=O)Nc3cnc(nc31)N(C)CCCOCCN(C)C2=O [Ex.71, [17a(18)Z]-2,5,12-trimethyl-6,7,9,10,11,12-hexahydro-1H-13,15-(azenometheno)dipyrrolo[3,2-f:3′,4′-i][1,4,11,13]oxatriazacyclohexadecine-4,17(5H,16H)-dione]	100 % Ctrl	95 % Ctrl	96 % Ctrl	91 % Ctrl	100 % Ctrl	100 % Ctrl	100 % Ctrl	99 % Ctrl	100 % Ctrl	92 % Ctrl	100 % Ctrl	67 % Ctrl	91 % Ctrl	100 % Ctrl	100 % Ctrl
Cc1cc2c([nH]1)/C=C1\C(=O)Nc3ccc(cc31)OCCOCCN(C)C2=O [Ex.91, [16a(17)Z]-2,5-dimethyl-6,7,9,10-tetrahydro-1H-12,14-(ethanediylidene)dipyrrolo[3,2-i:3′,4′-l][1,4,7]dioxazacyclopentadecine-4,16(5H,15H)-dione]	8.5 % Ctrl	99 % Ctrl	4.3 % Ctrl	7 % Ctrl	32 % Ctrl	14 % Ctrl	62 % Ctrl	1.2 % Ctrl	32 % Ctrl	100 % Ctrl	94 % Ctrl	68 % Ctrl	2.1 % Ctrl	0 % Ctrl	0 % Ctrl
Cc1cc2c([nH]1)/C=C1\C(=O)Nc3ccc(cc31)CN(C)C(=O)COCCNC2=O [Ex.111, [17a(18)Z]-2,11-dimethyl-6,7,11,12-tetrahydro-1H-13,15-(ethanediylidene)dipyrrolo[3,2-f:3′,4′-i][1,4,14]oxadiazacyclohexadecine-4,10,17(5H,9H,16H)-trione]	98 % Ctrl	74 % Ctrl	94 % Ctrl	76 % Ctrl	100 % Ctrl	98 % Ctrl	97 % Ctrl	20 % Ctrl	100 % Ctrl	83 % Ctrl	100 % Ctrl	59 % Ctrl	6.9 % Ctrl	0.45 % Ctrl	5.8 % Ctrl
Cc1cc2c([nH]1)/C=C1\C(=O)Nc3cnc(cc31)-c1cnn(C)c1COCCNC2=O [Ex.123, [3a(4)Z]-6,14-dimethyl-10,11,13,14-tetrahydro-2H-17,1-(azenometheno)pyrazolo[4,3-m]dipyrrolo[3,2-f:3′,4′-i][1,4]oxazacyclopentadecine-3,8(5H,9H)-dione]	100 % Ctrl	98 % Ctrl	91 % Ctrl	89 % Ctrl	100 % Ctrl	97 % Ctrl	99 % Ctrl	88 % Ctrl	100 % Ctrl	9 % Ctrl	100 % Ctrl	74 % Ctrl	93 % Ctrl	100 % Ctrl	39 % Ctrl
Cc1cc2c([nH]1)/C=C1\C(=O)Nc3ccc(cc31)-c1ccnn1CCOCCN(C)C2=O [Ex. 41, [19a(20)Z]-2,5-dimethyl-6,7,9,10-tetrahydro-1H-15,17-(ethanediylidene)pyrazolo[1,5-d]dipyrrolo[3,4-h:2′,3′-k][1,4,14]oxadiazacyclohexadecine-4,19(5H,18H)-dione]	53 % Ctrl	62 % Ctrl	34 % Ctrl	45 % Ctrl	45 % Ctrl	40 % Ctrl	64 % Ctrl	5.2 % Ctrl	77 % Ctrl	87 % Ctrl	78 % Ctrl	77 % Ctrl	13 % Ctrl	0.8 % Ctrl	0.35 % Ctrl
